Measurements from paper PMC12305662, “Fragment-Based Development of Small Molecule Inhibitors Targeting Mycobacterium tuberculosis Cholesterol Metabolism” (Journal of Medicinal Chemistry, 2025).

Key:
[1] = biological target: CYP125 (Mycobacterium tuberculosis, UniProt P9WPP1); assay type: binding; settings: fragment 1 mM, P450 4-6 µM; Soret shift relative to DMSO (393 nm)
[2] = biological target: CYP142 (Mycobacterium tuberculosis, UniProt P9WPL5); settings: fragment 1 mM, P450 4-6 µM; relative to DMSO (418.5 nm)
[3] = biological target: CYP124 (Mycobacterium tuberculosis, UniProt P9WPP3); settings: fragment 1 mM, P450 4-6 µM; relative to DMSO (419 nm)
[4] = biological target: CYP121 (Mycobacterium tuberculosis, UniProt P9WPP7); settings: fragment 1 mM, P450 4-6 µM; relative to DMSO (417 nm)
[5] = biological target: CYP126 (Mycobacterium tuberculosis, UniProt P9WPN9); settings: fragment 1 mM, P450 4-6 µM; relative to DMSO (418 nm)
[6] = biological target: CYP143 (Mycobacterium tuberculosis, UniProt P9WPL3); settings: fragment 1 mM, P450 4-6 µM; relative to DMSO (416 nm)
[7] = biological target: CYP144 (Mycobacterium tuberculosis, UniProt P9WPL1); settings: fragment 1 mM, P450 4-6 µM; relative to DMSO (421 nm)
Sequence of CYP144 (P9WPL1 whole entry, the tested form may be a part): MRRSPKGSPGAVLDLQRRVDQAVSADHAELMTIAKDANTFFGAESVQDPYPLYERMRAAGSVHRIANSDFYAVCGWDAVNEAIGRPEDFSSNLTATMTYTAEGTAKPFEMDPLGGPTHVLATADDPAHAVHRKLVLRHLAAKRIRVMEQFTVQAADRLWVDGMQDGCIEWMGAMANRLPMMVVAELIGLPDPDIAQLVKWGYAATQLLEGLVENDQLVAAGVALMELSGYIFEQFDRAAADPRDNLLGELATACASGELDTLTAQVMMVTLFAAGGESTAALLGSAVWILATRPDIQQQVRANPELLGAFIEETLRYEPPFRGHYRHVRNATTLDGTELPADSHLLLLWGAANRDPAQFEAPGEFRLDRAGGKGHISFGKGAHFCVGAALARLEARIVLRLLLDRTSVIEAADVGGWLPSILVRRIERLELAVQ

Sequence of CYP142 (P9WPL5 whole entry, the tested form may be a part): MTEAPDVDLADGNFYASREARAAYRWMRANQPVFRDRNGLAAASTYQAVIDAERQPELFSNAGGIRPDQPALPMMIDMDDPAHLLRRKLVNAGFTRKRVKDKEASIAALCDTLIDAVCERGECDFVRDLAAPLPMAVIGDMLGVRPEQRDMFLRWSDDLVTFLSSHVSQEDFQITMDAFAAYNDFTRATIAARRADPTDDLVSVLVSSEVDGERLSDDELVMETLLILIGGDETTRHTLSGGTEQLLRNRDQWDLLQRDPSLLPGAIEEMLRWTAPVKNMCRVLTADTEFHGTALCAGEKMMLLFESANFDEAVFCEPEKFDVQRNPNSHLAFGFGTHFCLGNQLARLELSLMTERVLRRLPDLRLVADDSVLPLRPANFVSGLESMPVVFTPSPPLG
Sequence of CYP126 (P9WPN9 whole entry, the tested form may be a part): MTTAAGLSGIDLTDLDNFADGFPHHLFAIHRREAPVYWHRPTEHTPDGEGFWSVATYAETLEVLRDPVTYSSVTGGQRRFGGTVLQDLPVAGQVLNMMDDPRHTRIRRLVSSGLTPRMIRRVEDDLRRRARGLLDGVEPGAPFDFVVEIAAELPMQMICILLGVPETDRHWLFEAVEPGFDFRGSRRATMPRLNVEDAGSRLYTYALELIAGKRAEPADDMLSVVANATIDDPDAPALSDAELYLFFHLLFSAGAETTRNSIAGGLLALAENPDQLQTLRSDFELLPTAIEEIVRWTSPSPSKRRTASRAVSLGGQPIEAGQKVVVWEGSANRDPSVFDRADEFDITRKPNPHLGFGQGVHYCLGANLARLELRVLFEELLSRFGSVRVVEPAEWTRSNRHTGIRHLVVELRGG
Sequence of CYP125 (P9WPP1 whole entry, the tested form may be a part): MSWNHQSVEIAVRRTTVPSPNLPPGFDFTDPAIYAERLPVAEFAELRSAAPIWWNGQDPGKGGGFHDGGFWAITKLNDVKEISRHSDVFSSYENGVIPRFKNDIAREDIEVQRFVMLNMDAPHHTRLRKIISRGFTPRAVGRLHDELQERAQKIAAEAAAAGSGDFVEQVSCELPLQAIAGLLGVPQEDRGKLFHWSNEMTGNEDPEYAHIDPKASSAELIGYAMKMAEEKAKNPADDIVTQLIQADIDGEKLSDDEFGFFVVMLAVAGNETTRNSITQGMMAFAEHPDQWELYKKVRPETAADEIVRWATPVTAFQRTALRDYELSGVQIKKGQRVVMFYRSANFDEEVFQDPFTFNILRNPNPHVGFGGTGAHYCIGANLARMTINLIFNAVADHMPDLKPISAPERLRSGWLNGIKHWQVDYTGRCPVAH
Sequence of CYP121 (P9WPP7 whole entry, the tested form may be a part): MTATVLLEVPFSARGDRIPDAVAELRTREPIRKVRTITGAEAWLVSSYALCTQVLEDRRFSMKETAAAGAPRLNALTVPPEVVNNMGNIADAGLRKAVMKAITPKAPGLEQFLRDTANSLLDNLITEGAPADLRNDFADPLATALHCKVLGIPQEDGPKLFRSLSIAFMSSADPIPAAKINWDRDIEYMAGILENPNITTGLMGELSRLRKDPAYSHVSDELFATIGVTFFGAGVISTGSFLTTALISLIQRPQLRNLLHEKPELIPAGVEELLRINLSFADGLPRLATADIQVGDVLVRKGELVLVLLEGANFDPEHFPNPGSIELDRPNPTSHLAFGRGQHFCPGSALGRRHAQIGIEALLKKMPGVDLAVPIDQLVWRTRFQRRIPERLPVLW
Sequence of CYP143 (P9WPL3 whole entry, the tested form may be a part): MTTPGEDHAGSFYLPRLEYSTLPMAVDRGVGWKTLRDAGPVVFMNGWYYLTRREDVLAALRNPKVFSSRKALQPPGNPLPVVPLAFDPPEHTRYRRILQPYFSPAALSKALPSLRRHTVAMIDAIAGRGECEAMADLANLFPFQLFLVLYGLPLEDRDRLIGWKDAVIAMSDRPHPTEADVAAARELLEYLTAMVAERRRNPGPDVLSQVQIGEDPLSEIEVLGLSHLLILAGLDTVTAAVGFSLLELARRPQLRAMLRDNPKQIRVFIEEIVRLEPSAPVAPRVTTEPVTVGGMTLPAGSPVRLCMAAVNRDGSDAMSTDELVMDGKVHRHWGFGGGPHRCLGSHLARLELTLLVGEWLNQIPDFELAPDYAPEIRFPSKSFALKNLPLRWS
Sequence of CYP124 (P9WPP3 whole entry, the tested form may be a part): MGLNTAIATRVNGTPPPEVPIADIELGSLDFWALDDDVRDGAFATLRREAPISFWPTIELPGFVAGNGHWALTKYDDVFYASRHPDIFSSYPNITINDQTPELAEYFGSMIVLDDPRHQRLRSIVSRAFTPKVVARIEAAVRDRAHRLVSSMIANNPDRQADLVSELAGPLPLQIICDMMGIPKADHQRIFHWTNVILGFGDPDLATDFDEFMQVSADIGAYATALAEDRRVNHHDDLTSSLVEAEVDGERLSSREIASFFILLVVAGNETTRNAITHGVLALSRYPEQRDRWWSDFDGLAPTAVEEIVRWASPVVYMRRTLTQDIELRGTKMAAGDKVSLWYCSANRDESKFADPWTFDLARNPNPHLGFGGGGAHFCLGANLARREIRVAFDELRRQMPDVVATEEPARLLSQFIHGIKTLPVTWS

Row | Compound | Δλmax (nm) CYP125, fragment screen [1] [nm] | Δλmax (nm) CYP142, fragment screen [2] [nm] | Δλmax (nm) CYP124, fragment screen [3] [nm] | Δλmax (nm) CYP121, fragment screen [4] [nm] | Δλmax (nm) CYP126, fragment screen [5] [nm] | Δλmax (nm) CYP143, fragment screen [6] [nm] | Δλmax (nm) CYP144, fragment screen [7] [nm]
1 | c1ccc(N2CCOCC2)nc1 [compound 63] | 0 | 0 | 0 | 0 | 0 | 1 | 0
2 | O=C1CCN(c2ccccc2)N1 [compound 64] | 0 | 1.5 | -1 | 0 | 0 | 1 | 0
3 | CCc1nc(C)c[nH]1 [compound 67] | 0 | 0 | 0 | -1 | 0 | 0 | 0
4 | c1ccc(-c2c[nH]cn2)cc1 [compound 68] | 0 | 3 | 4 | 0 | 1 | 2 | 0
5 | OCc1ccc(Cn2cncn2)cc1 [compound 69] | 0 | 0 | 0 | 0 | 0 | 0 | 0
6 | Cn1nc(C(=O)O)cc1-c1ccccc1 [compound 70] | 0 | 0 | 2 | 0 | 0 | 0.5 | 0
7 | N#Cc1cccc(-n2ccnc2)c1 [compound 71] | 0 | 3 | 1 | 0 | 0 | 2.5 | 0
8 | N#Cc1ncccc1F [compound 72] | 0 | 0 | 0 | 0 | 0 | 0 | 0
9 | Nc1ccc(Cl)nn1 [compound 73] | 0 | 0 | 0 | 0 | 0 | 0 | 0
10 | O=C(O)c1cccc(-c2cccnc2)c1 [compound 74] | 0 | 0 | 0 | 0 | 0 | 1 | 0
11 | C#Cc1cccnc1 [compound 75] | 0 | 0 | 0 | 0 | 0 | 0 | 0
12 | Brc1c[nH]cn1 [compound 77] | 0 | 3 | 0 | -1 | 0 | 0.5 | 0
13 | O=S(=O)(O)c1ccccn1 [compound 78] | 0 | 0 | 0 | 0 | 0 | 1 | 0
14 | O=C(O)[C@@H]1Cc2ccccc2CN1 [compound 79] | -2 | 0 | 0 | 1 | 0 | 0 | 0
